These results are taken from patent US7105534B2, “Imidazo[1,2-α]pyridine ether compounds as ion channel modulators” (Cardiome Pharma Corp., priority 2000, dated 2006).

For assay [1], the system named is anesthetized rats subjected to coronary artery occlusion. In words: Antiarrhythmic efficacy: arrhythmias after coronary artery occlusion in anesthetized rats. Type of assay: in vivo, rat. To be noted: i.v. infusion. An excerpt:
Antiarrhythmic efficacy may be assessed by investigating the effect of a compound on the incidence of cardiac arrhythmias in anesthetized rats subjected to coronary artery occlusion. Rats weighing 200–300 gms are subjected to preparative surgery and assigned to groups in a random block design. In each case, the animal is anesthetized with pentobarbital during surgical preparation. The left carotid artery is cannulated for measurement of mean arterial blood pressure and withdrawal of blood samples. The left jugular vein is also cannulated for injection of drugs. The thoracic cavity is opened and a polyethylene occluder loosely placed around the left anterior descending coronary artery. The thoracic cavity is then closed. An ECG is recorded by insertion of electrodes placed along the anatomical axis of the heart. […] ECG, arrhythmias, blood pressure, heart rate and mortality are monitored for 15 minutes after occlusion. Arrhythmias are recorded as ventricular tachycardia (VT) and ventricular fibrillation (VF) and scored according to Curtis, M. J. and Walker, M. J. A., Cardiovasc. […]
Occlusion is associated with R-wave height and “S-T” segment elevation; and an occluded zone (measured after death by cardiogreen dye perfusion) in the range of 25%–50% of total left-ventricular weight.
Results of the test compounds may be expressed as values of a given infusion rate in micromol/kg/min. […]

A further assay has as its target T1, hH1 Na+ current (Homo sapiens, UniProt Q14524).
T1 construct: expressed in transfected cells; host or cells: HEK cells, transient transfection, vector pCDNA3
In words: Patch-clamp inhibition of cloned ion channel current in transfected HEK cells: Na. Type of assay: cell-based. The conditions noted are these: peak hH1 Na+ current, -100 mV to -30 mV. Here is the method:
The relevant cloned ion channels (e.g. cardiac hH1, Kv1.4, Kv1.5, Kv4.2, Kv2.1, HERG etc.) are studied by transient transfection into HEK cells using the mammalian expression vector pCDNA3. Transfections for each channel type are carried out separately to allow individual study of the ion channel of interest. Cells expressing channel protein are detected by cotransfecting cells with the vector pHook-1 (Invitrogen, San Diego, Calif., USA). […] Equal concentrations of individual channel and pHook DNA are incubated with 10× concentration of lipofectAce in Modified Eagle's Medium (MEM, Canadian Life Technologies) and incubated with parent HEK cells plated on 25 mm culture dishes. After 3–4 hours the solution is replaced with a standard culture medium plus 20% fetal bovine serum and 1% antimycotic. Transfected cells are maintained at 37C in an air/5% CO2 incubator in 25 mm Petri dishes plated on glass coverslips for 24–48 hours to allow channel expression to occur. 20 min prior to experiments, cells are treated with beads coated with phOX. After 15 min, excess beads are […] off with cell culture medium and cells which had beads stuck to them are used for electrophysiological tests.
For whole-cell recording the control pipette filling solution contained (in mM): KCl, 130; EGTA, 5; MgCl2, 1; HEPES, 10; Na2ATP, 4; GTP, 0.1; and is adjusted to pH 7.2 with KOH. The control bath solution contained (in mM): NaCl, 135; KCI, 5; sodium acetate, 2.8; MgCl2, 1; HEPES, 10; CaCl2, 1; and is adjusted to pH 7.4 with NaOH. The test ion channel modulating compound is dissolved to 10 mM stock solutions in water and used at concentrations between 0.5 and 100 μM.
Coverslips containing cells are removed from the incubator before experiments and placed in a superfusion chamber (volume 250 μl) containing the control bath solution at 22C to 23C. All recordings are made via the variations of the patch-clamp technique, using an Axopatch 200A amplifier (Axon Instruments, CA). Patch electrodes are pulled from thin-walled borosilicate glass (World Precision Instruments; FL) on a horizontal micropipette puller, fire-polished, and filled with appropriate solutions. Electrodes had resistances of […] when filled with control filling solution. Analog capacity compensation is used in all whole cell measurements. In some experiments, leak subtraction is applied to data. Membrane potentials have not been corrected for any junctional potentials that arose between the pipette and bath solution. Data are filtered at 5 to 10 kHz before digitization and stored on a microcomputer for later analysis using the pClamp6 software (Axon Instruments, Foster City, Calif.). Due to the high level of expression of channel cDNA's in HEK cells, there is no need for signal averaging. The average cell capacitance is quite small, and the absence of ionic current at negative membrane potentials allowed faithful leak subtraction of data.
The concentration-response curves for changes in peak and steady-state current produced by the test compound are computer-fitted to the Hill equation: f=1−1/[1+([…])^n] [1]
where f is the fractional current (f=Idrug/Icontrol) at drug concentration [D]; IC50 is the concentration producing half-maximal inhibition and n is the Hill coefficient.
Compounds of the present invention may be evaluated by this method. […] Block is determined from the decrease in peak hH1 Na^+ current, or in steady-state Kv1.5 and integrated Kv4.2 current in the presence of drug. To record Na^+ current, cells are depolarized from the holding potential of −100 mV to a voltage of −30 mV for 10 ms to fully open and inactivate the channel. To record Kv1.5 and Kv4.2 current, cells are depolarized from the holding potential of −80 mV to a voltage of +60 mV for 200 ms to fully open the channel. Currents are recorded in the steady-state at a range of drug concentrations during stimulation every 4 s. […]
On the technique in general: The patch-clamp technique gives a direct electrical read-out from membranes.

In the next assay the target is T2, HERG (Homo sapiens, UniProt Q12809).
T2 construct: expressed in transfected cells; host or cells: HEK cells, transient transfection, vector pCDNA3
T2 sequence (Q12809 whole entry): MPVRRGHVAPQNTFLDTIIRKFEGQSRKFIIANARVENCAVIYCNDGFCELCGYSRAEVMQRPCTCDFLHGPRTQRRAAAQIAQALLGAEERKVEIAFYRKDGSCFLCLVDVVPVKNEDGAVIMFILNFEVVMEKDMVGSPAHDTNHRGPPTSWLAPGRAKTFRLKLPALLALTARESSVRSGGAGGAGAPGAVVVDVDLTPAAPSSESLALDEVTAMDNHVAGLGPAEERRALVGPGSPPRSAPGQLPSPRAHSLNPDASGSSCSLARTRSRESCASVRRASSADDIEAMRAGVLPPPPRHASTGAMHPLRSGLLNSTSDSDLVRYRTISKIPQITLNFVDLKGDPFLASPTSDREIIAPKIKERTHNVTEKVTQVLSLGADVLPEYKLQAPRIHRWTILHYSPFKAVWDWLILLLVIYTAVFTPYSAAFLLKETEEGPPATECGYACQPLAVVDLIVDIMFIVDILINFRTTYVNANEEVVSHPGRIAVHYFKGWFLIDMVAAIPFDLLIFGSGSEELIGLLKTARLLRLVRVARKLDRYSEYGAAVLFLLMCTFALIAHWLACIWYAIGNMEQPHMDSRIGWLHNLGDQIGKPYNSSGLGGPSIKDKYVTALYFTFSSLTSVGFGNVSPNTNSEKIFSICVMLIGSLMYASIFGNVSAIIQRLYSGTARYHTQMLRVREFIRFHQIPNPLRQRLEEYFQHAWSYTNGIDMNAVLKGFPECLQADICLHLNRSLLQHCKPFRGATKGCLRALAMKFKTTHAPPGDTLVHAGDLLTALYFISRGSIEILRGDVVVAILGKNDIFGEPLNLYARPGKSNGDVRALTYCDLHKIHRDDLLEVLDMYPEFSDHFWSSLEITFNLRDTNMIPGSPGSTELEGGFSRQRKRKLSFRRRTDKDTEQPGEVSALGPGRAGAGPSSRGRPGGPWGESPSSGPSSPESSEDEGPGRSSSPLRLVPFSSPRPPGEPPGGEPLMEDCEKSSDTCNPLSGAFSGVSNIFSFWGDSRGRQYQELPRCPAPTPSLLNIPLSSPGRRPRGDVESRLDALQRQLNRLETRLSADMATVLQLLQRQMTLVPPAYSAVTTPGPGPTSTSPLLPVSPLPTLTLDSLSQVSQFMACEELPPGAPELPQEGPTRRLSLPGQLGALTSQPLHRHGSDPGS
In words: Patch-clamp inhibition of cloned ion channel current in transfected HEK cells: HERG. The class given is cell-based. To be noted: whole-cell patch clamp. In outline:
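HERG channels were expressed by transient lipofection of HEK cells with pCDNA3 plus the pHook-1 marker, and bead-tagged cells were selected after 24–48 hours. Whole-cell currents were recorded at 22C to 23C with an Axopatch 200A in KCl pipette and NaCl bath solutions. Compound was applied at 0.5 to 100 μM, and IC50 came from Hill equation fits.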

As a reminder, the IC50 is the point on the concentration scale where inhibition reaches its midpoint. Lower therefore signals higher potency.

SMILES strings stand for the structures.

T1 sequence (Q14524 whole entry): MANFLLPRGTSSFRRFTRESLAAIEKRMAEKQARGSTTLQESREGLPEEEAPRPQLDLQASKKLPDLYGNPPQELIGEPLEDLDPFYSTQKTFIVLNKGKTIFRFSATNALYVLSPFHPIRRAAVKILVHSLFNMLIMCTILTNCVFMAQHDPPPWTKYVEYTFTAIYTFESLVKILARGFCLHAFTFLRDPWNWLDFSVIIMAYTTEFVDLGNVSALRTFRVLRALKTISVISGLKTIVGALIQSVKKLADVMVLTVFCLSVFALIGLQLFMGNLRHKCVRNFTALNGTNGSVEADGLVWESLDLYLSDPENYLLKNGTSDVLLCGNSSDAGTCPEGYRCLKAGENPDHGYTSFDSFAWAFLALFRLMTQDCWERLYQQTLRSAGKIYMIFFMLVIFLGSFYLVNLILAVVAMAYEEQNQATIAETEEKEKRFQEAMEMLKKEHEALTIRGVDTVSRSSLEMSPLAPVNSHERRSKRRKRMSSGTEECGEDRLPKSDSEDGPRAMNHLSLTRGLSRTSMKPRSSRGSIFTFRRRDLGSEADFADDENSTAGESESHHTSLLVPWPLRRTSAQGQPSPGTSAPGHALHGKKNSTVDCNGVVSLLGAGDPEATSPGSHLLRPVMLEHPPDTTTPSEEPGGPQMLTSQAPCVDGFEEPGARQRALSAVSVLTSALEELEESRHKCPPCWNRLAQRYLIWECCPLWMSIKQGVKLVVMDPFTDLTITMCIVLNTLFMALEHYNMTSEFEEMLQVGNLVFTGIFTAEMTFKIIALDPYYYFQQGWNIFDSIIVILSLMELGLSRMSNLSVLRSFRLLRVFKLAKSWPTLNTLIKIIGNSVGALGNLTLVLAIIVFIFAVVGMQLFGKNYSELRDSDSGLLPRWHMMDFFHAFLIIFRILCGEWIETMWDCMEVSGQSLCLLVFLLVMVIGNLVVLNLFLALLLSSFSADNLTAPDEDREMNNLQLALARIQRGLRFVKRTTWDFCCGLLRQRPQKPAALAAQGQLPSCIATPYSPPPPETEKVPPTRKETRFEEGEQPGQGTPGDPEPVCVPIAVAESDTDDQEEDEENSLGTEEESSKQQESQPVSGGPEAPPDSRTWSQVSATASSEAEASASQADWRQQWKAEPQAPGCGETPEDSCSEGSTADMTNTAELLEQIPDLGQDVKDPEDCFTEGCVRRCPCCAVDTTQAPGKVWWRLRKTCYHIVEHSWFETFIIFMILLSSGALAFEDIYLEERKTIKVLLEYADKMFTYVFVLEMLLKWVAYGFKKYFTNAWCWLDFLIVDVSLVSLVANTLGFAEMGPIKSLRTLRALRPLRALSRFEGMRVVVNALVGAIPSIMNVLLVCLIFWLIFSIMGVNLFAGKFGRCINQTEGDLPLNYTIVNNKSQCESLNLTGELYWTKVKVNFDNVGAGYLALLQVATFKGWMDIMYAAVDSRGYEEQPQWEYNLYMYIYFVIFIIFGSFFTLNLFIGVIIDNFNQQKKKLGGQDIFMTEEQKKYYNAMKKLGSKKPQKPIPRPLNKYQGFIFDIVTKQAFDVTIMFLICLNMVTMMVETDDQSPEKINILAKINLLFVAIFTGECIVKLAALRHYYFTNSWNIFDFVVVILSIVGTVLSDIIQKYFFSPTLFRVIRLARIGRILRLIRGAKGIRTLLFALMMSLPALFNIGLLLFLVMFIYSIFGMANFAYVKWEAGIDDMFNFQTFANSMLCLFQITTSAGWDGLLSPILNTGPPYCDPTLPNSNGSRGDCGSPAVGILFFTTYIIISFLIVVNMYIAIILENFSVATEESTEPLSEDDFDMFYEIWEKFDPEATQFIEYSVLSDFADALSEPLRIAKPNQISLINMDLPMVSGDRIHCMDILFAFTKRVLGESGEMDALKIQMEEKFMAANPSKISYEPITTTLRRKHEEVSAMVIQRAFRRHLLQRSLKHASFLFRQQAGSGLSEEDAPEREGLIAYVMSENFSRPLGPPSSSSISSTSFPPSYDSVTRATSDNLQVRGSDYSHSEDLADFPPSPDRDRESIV

With `COc1ccc(CCCOc2cccn3cc(C)nc23)cc1OC` [Compound 3, 8-[3-(3,4-DIMETHOXYPHENYL)PROPOXY]-2-METHYLIMIDAZO[1,2-α]PYRIDINE MONOHYDROCHLORDE], in assay [1], the “ED50AA (infusion rate reducing arrhythmia score to 50% of vehicle-treated animals)” value came to 5 µmol/kg/min. For the same molecule, the half-maximal inhibitory concentration (IC50) is 94 µM at hH1 Na+ current and 0.6 µM against HERG.
